Measurements: patent publication US8937091B2 (Japan Science and Technology Agency, priority 2009, dated 2015)

What was measured:
[1] = system: SOCE (store operated calcium entry) in CHO cells; assay: Assay of SOCE (store operated calcium entry)-inhibiting action; assay type: cell-based, Chinese hamster; settings: CHO cells, thapsigargin; for inhibition at 10 µM / inhibition at 100 µM / inhibition at 30 µM: Cricetulus griseus, CHO, read-out: SOCE level (percentage of inhibition)
How it was run: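 CHO cells in calcium-free BSS received compound, then 1 μM thapsigargin 2 min later to deplete stores; after 9 min, 2 mM calcium chloride (final) added. Percent inhibition of the rise in intracellular calcium determined at various compound concentrations.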

[2] = system: IICR (IP3 induced calcium release) in CHO cells; assay: Assay of IICR (IP3 induced calcium release)-inhibiting action; assay type: cell-based, Chinese hamster; settings: CHO cells, 10 μM ATP; for inhibition at 100 µM / inhibition at 10 µM / inhibition at 30 µM: Cricetulus griseus, CHO, read-out: IICR level (percentage of inhibition)
How it was run: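 Inhibition (%) of the intracellular calcium increase triggered by 10 μM ATP, measured in CHO cells in BSS with calcium. Compound given 1 min after the buffer exchange and 2 min before ATP; values reported per compound concentration.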

Structure (SMILES): CC(C)(C)N(CCO)CCC(=O)c1ccc(Br)s1 [Example 294, 2-(N-2-hydroxyethyl-t-butyl)aminoethyl-5-bromo-2-thienylketone]
- inhibition at 10 µM ([1]; test compound 10 μmol): 0%
- inhibition at 100 µM ([1]; test compound 100 μmol): 10%
- inhibition at 100 µM ([2]; test compound 100 μmol): 50%
- IICR level (percentage of inhibition) ([2]; test compound 10 μmol): 70%
- IICR level (percentage of inhibition) ([2]; test compound 30 μmol): 40%

Structure (SMILES): CC(C)N(CCC(=O)n1nnc2ccccc21)Cc1ccccc1 [Example 295, 2-(N-isopropylbenzyl)aminoethyl-1-benzotriazoketone]
- inhibition at 10 µM ([1]; test compound 10 μmol): 0%
- inhibition at 30 µM ([1]; test compound 30 μmol): 0%
- inhibition at 100 µM ([1]; test compound 100 μmol): 0%
- inhibition at 10 µM ([2]; test compound 10 μmol): 80%
- inhibition at 30 µM ([2]; test compound 30 μmol): 70%
- inhibition at 100 µM ([2]; test compound 100 μmol): 60%

Structure (SMILES): O=C(CCN(CCO)CCO)n1nnc2ccccc21 [Example 296, 2-bis(N-2-hydroxyethyl)aminoethyl-1-benzotriazoketone]
- inhibition at 10 µM ([1]; test compound 10 μmol): 0%
- inhibition at 30 µM ([1]; test compound 30 μmol): 0%
- inhibition at 100 µM ([1]; test compound 100 μmol): 20%
- inhibition at 10 µM ([2]; test compound 10 μmol): 0%
- inhibition at 30 µM ([2]; test compound 30 μmol): 50%
- inhibition at 100 µM ([2]; test compound 100 μmol): 60%

Structure (SMILES): CC(C)N(CCC(=O)c1ccc(-c2ccccc2)cc1)Cc1ccccc1 [Example 297, 2-(N-isopropylbenzyl)aminoethyl-4-biphenylketone]
- inhibition at 10 µM ([1]; test compound 10 μmol): 20%
- inhibition at 30 µM ([1]; test compound 30 μmol): 50%
- inhibition at 100 µM ([1]; test compound 100 μmol): 60%
- inhibition at 10 µM ([2]; test compound 10 μmol): 50%
- inhibition at 30 µM ([2]; test compound 30 μmol): 50%
- inhibition at 100 µM ([2]; test compound 100 μmol): 90%

Structure (SMILES): CC(C)N(CCO)CCC(=O)c1ccc(-c2ccccc2)cc1 [Example 298, 2-(N-2-hydroxyethylisopropyl)aminoethyl-4-biphenylketone]
- inhibition at 10 µM ([1]; test compound 10 μmol): 20%
- inhibition at 30 µM ([1]; test compound 30 μmol): 40%
- inhibition at 100 µM ([1]; test compound 100 μmol): 50%
- inhibition at 10 µM ([2]; test compound 10 μmol): 60%
- inhibition at 30 µM ([2]; test compound 30 μmol): 50%
- inhibition at 100 µM ([2]; test compound 100 μmol): 60%

Structure (SMILES): O=C(CCN(CCO)c1ccccc1)c1ccc(-c2ccccc2)cc1 [Example 299, 2-(N-2-hydroxyethylphenyl)aminoethyl-4-biphenylketone]
- inhibition at 10 µM ([1]; test compound 10 μmol): 20%
- inhibition at 30 µM ([1]; test compound 30 μmol): 40%
- inhibition at 100 µM ([1]; test compound 100 μmol): 40%
- inhibition at 10 µM ([2]; test compound 10 μmol): 70%
- inhibition at 30 µM ([2]; test compound 30 μmol): 30%
- inhibition at 100 µM ([2]; test compound 100 μmol): 30%

Structure (SMILES): O=C(CCNCCc1ccccc1)c1ccco1 [Example 300, 2-(N-phenethyl)aminoethyl-2-furylketone]
- inhibition at 30 µM ([1]; test compound 30 μmol): 20%
- inhibition at 100 µM ([1]; test compound 100 μmol): 40%
- inhibition at 10 µM ([2]; test compound 10 μmol): 30%
- inhibition at 30 µM ([2]; test compound 30 μmol): 0%
- inhibition at 100 µM ([2]; test compound 100 μmol): 10%

Structure (SMILES): CCN(CCC(=O)c1ccc(Br)s1)Cc1ccccc1 [Example 301, 2-(N-ethylbenzyl)aminoethyl-5-bromo-2-thienylketone]
- inhibition at 10 µM ([1]; test compound 10 μmol): 20%
- inhibition at 30 µM ([1]; test compound 30 μmol): 30%
- inhibition at 100 µM ([1]; test compound 100 μmol): 40%
- inhibition at 10 µM ([2]; test compound 10 μmol): 70%
- inhibition at 30 µM ([2]; test compound 30 μmol): 70%
- inhibition at 100 µM ([2]; test compound 100 μmol): 90%

Structure (SMILES): CC(C)(C)N(CCC(=O)c1ccc(C#N)cc1)Cc1ccccc1 [Example 302, 2-(N-t-butylbenzyl)aminoethyl-4-cyanophenylketone]
- inhibition at 10 µM ([1]; test compound 10 μmol): 0%
- inhibition at 30 µM ([1]; test compound 30 μmol): 0%
- inhibition at 100 µM ([1]; test compound 100 μmol): 20%
- inhibition at 30 µM ([2]; test compound 30 μmol): 90%
- IICR level (percentage of inhibition) ([2]; test compound 10 μmol): 60%

Structure (SMILES): Cc1ccc(C(=O)CCN(Cc2ccccc2)C(C)(C)C)cc1 [Example 303, 4-tolyl(N-benzyl-N-t-butyl)aminoethylketone]
- inhibition at 10 µM ([1]; test compound 10 μmol): 0%
- inhibition at 30 µM ([1]; test compound 30 μmol): 0%
- inhibition at 100 µM ([1]; test compound 100 μmol): 0%
- inhibition at 10 µM ([2]; test compound 10 μmol): 20%
- inhibition at 30 µM ([2]; test compound 30 μmol): 20%
- inhibition at 100 µM ([2]; test compound 100 μmol): 40%

Structure (SMILES): CC(C)(C)N(CCC(=O)c1ccc(C#N)cc1)Cc1ccccc1 [Example 304, 4-cyanophenyl(N-benzyl-N-t-butyl)aminoethylketone]
- SOCE level (percentage of inhibition) ([1]; test compound 10 μmol): 0%
- SOCE level (percentage of inhibition) ([1]; test compound 30 μmol): 0%
- SOCE level (percentage of inhibition) ([1]; test compound 100 μmol): 10%
- IICR level (percentage of inhibition) ([2]; test compound 10 μmol): 90%
- IICR level (percentage of inhibition) ([2]; test compound 30 μmol): 100%
- IICR level (percentage of inhibition) ([2]; test compound 100 μmol): 20%

Structure (SMILES): CC(C)(C)N(CCC(=O)c1ccc(Cl)cc1)Cc1ccccc1 [Example 305, 2-(N-t-butyl-N-benzyl)aminoethyl-4-chlorophenylketone]
- inhibition at 10 µM ([1]; test compound 10 μmol): 20%
- inhibition at 30 µM ([1]; test compound 30 μmol): 20%
- inhibition at 100 µM ([1]; test compound 100 μmol): 60%
- inhibition at 10 µM ([2]; test compound 10 μmol): 60%
- inhibition at 30 µM ([2]; test compound 30 μmol): 70%
- inhibition at 100 µM ([2]; test compound 100 μmol): 50%

Structure (SMILES): Cc1ccc(C(=O)CCNCCO)s1 [Example 306, 2-(N-hydroxyethyl)aminoethyl-5-methyl-2-thienylketone]
- inhibition at 10 µM ([1]; test compound 10 μmol): 10%
- inhibition at 30 µM ([1]; test compound 30 μmol): 20%
- inhibition at 100 µM ([1]; test compound 100 μmol): 30%
- inhibition at 10 µM ([2]; test compound 10 μmol): 50%
- inhibition at 30 µM ([2]; test compound 30 μmol): 20%
- inhibition at 100 µM ([2]; test compound 100 μmol): 30%
